Test results taken from patent US20020058628A1, “Antioxidants and intracellular glutathione raising agents for therapeutic treatments” (priority 1998, published 2002).
Entries after “also recorded” stand apart in the source; their conditions may differ.

Columns and labels:
0-2A progenitor cells = assay: PDGF-induced division of purified 0-2A progenitor cells (BrdU incorporation, total cell number); format: cell-based, rat
Experimental: The effect of NAC on generation of 0-2A progenitors and oligodendrocytes was examined in cultures of purified 0-2A progenitors (prepared as in Example IA) exposed to platelet-derived growth factor (PDGF), the best-characterized mitogen for 0-2A progenitor cells.
NAC enhances the division-inducing effects of platelet-derived growth factor (PDGF). Purified 0-2A progenitor cells were plated on PLL-coated coverslips at a density of 3,000 cells per cover slip and exposed to PDGF (a known mitogen for these cells) at the indicated concentrations. In addition, cells were exposed to NAC at a variety of concentrations; the effects of 1 mM NAC are illustrated.
As shown previously, induction of DNA synthesis and increases in cell number by PDGF was dose-dependent.

embryonic kidney cells = assay: EGF-induced proliferation of embryonic kidney cells; format: cell-based, rat; details: all EGF concentrations examined
Experimental: FIG. 7 was analyzed as for FIG. 1(B), but used embryonic kidney cells. The cells grown in the 96-well trays were derived by dissociation of kidney rudiments from 11 days embryonic rats. Cells were grown in DMEM-BDS+/−epidermal growth factor (at the concentrations indicated)+/−NAC.

[1] = test system: embryonic sensory neurons; assay: Rescue of embryonic sensory neurons from apoptosis by NGF+NAC; format: cell-based; details: NAC + 1 or 10 ng/ml NGF on days 1 and 2, labeled on day 3; depending on NAC and NGF concentrations
Experimental: Cultures of embryonic sensory neurons were generated according to methods described in Groves et al., Dev. Biol., 159:87-104, (1993), the contents of which are incorporated herein by reference. The cells were exposed to sub-optimal doses of NGF. As shown in FIG. 4 cultures exposed to NAC and either 1 or 10 ng/ml NGF on days 1 and 2 and labeled on day 3 contained 300-1000% more neurons than those exposed to NGF alone, depending upon the concentrations of NAC and NGF applied.
Neurons were defined by morphology and by labeling with the TUJI antibody against β-tubuli (Groves, A. K., et al., Dev. Biol., 159:87-104 (1993); Moody, S. Q., et al., J. Comp. Neurol., 279:567-580 (1989)) cultures were in DMEM-BS. There was no BrdU labeling of neurons, nor was there any correlation between the extent of BrdU labeling in non-neuronal populations and the number of neurons present (data not shown). Analysis of DNA synthesis by BrdU incorporation (Gatzner, H. G., et al., Science, 318:474-475 (1982) confirmed that this increase in neuronal number was not due to cell division, strongly implicating differential cell death as the reason for the difference.
Values shown are means+/−SD for quadruplicate coverslips from the one of four experiments, all of which yielded similar results.

spinal ganglion neurons = assay: Neurite outgrowth of spinal ganglion neurons on laminin or L1; format: cell-based, rat; details: 24 hours, NGF added
Description: To determine whether compounds that are able to raise intracellular thiol levels are able to enhance the efficacy of yet a different group of cellular signaling systems, we examined the effects of NAC supplementation on the promotion of neurite outgrowth by laminin and by L1. We first determined suboptimal concentrations for the effect of these cellular adhesion molecules, which were attached to tissue culture plastic surfaces in two different manners. Laminin was directly attached to the tissue culture surface with a cross-linking chemistry that preserves the structure of extracellular matrix molecules. L1 was attached as a dimer chimera, cross-linked by an Fc region from a human immunoglobulin molecule, by first adsorbing to the plastic surface an antibody directed against the human immunoglobulin Fc domain, followed by absorption of the L1 dimer to this surface. To promote neuronal survival, nerve growth factor (NGF), the survival factor of the spinal ganglion neurons used in this experiment, was also added at different concentrations. […] After 24 hours cultures were stained with an antibody to beta-III-tubulin and neurite length per neuron was measured.

oligodendrocytes = assay: Rescue of purified oligodendrocytes from apoptosis induced by switch to DMEM alone (trophic factor withdrawal); details: for enhancement of survival factor (IFN-γ) activity compared with NAC: co-exposure with survival factor
Experimental: After 3 days of growth in DMEM-BS, the resulting cultures of pure oligodendrocytes were switched to DMEM alone, a condition that induces apoptosis unless cells are exposed to appropriate growth factors.
Cells were then switched to DMEM alone, supplemented with 10, 50 or 500 u/ml of interferon-γ, and the number of surviving cells present after a further three days was determined by MTT staining.
After 3 days in DMEM-BS, the resulting cultures of pure oligodendrocyte were switched to DMEM alone to which was added progesterone+/−1 mM NAC (FIG. 9).
After 3 days in DMEM-BS, the resulting cultures of pure oligodendrocytes were switched to DMEM alone to which was added 10 μM Trolox+/−1 mM NAC (FIG. 10).
After 3 days in DMEM-BS, the resulting cultures of pure oligodendrocyte were switched to DMEM alone to which was added (a) progesterone (63 ug/ml)+NAC (1 mM)+trolox (100 uM)+Vitamin C (10 uM) (“combination”) or (b) CNTF (10 ng/ml)+IGF-1 (50 ng/ml)+NT-3 (5 ng/ml) (“combination”).
In all conditions, the 100% value corresponds to the cell survival seen in cultures of oligodendrocyte not subjected to trophic factor withdrawal.
After 3 days in DMEM-BS, the resulting cultures of pure oligodendrocytes were switched to DMEM alone to which was added progesterone.
Purified oligodendrocytes were generated and grown as in previous examples. 3 days after plating, cells were switched either directly to the indicated conditions (open bars) or were first switched to DMEM alone for 24 hr before the indicated factors were added in an attempt to rescue the cells (black bars). Cells were counted 3 days after switch to the indicated conditions.

## CC(=O)N[C@@H](CS)C(=O)O [NAC, N-acetylcysteine]
0-2A progenitor cells; 1 mM NAC + PDGF
  ability of PDGF to induce DNA synthesis (BrdU incorporation) on addition of NAC: marked increase
  total number of cells generated by PDGF-induced cell division on addition of NAC: marked increase
0-2A progenitor cells; NAC alone, BrdU incorporation and total cell number
  induction of cell division by NAC alone: had no effect on the induction of cell division
Embryonic kidney cells
  effect of NAC on EGF-induced proliferation (cell number): enhanced the proliferative effects of EGF
[1]
  more neurons than with NGF alone: 300-1000%
Spinal ganglion neurons; L1 2 micrograms/ml plating concentration
  neurite length on L1 with NAC versus without NAC: enhanced
Spinal ganglion neurons; laminin 2 micrograms/ml plating concentration
  neurite length on laminin with NAC versus without NAC: enhanced
oligodendrocytes; 1 mM NAC + 10 μM Trolox, DMEM alone, 3 days
  extent of survival, NAC in combination with Trolox: highly significant increases (**)
oligodendrocytes; 1 mM NAC + Vitamin C, DMEM alone, 3 days
  extent of survival, NAC in combination with Vitamin C: highly significant increases (**)
oligodendrocytes; 1 mM NAC + progesterone, DMEM alone, 3 days, no RTK/RawTK agonists
  extent of survival, NAC in combination with progesterone: highly significant increases (**)
oligodendrocytes; 1 mM NAC + various concentrations of CNTF, DMEM alone, 3 days
  extent of survival with CNTF in presence of NAC versus CNTF by itself: significant increases
oligodendrocytes; 1 mM NAC + various concentrations of IGF-1, DMEM alone, 3 days
  extent of survival with IGF-1 in presence of NAC versus IGF-1 by itself: significant increases
oligodendrocytes; 1 mM NAC alone, DMEM alone, 3 days
  cell survival with NAC alone: did not promote oligodendrocyte survival; also recorded: did not promote cell survival
oligodendrocytes; Example I-(L), counted 3 days after switch
  oligodendrocyte survival, cells switched directly to the indicated conditions: not effective at supporting oligodendrocyte survival
oligodendrocytes; NAC 1 mM alone
  Survival (as % of DMEM-BS control): 2 ± 1%
oligodendrocytes; NAC 1 mM together with IFN-γ
  extent of survival obtained with IFN-γ when NAC is applied together: dramatically enhanced the extent of survival obtained

## CC(=O)[C@H]1CC[C@H]2[C@@H]3CCC4=CC(=O)CC[C@]4(C)[C@H]3CC[C@]12C [Progesterone, progesterone]
oligodendrocytes; Progesterone 6.3 ng/ml alone
  Survival (as % of DMEM-BS control): 4 ± 1%
oligodendrocytes; Progesterone .63 ng/ml alone
  Survival (as % of DMEM-BS control): 0%

## Cc1c(C)c2c(c(C)c1O)CCC(C)(C(=O)O)O2 (centres unmarked) [Trolox]
oligodendrocytes; Trolox 100 uM alone
  Survival (as % of DMEM-BS control): 6 ± 5%
oligodendrocytes
  enhancement of survival factor (IFN-γ) activity compared with NAC: similar, but lesser effects

## O=C1O[C@H]([C@@H](O)CO)C(O)=C1O [Vitamin C]
oligodendrocytes; 10 uM Vit C alone, Example I(J), DMEM alone, 3 days
  Survival (as % of DMEM-BS control): 2 ± 3%
oligodendrocytes; VitC 10 uM alone, Example I(K)
  Survival (as % of DMEM-BS control): 1 ± 1%
oligodendrocytes
  enhancement of survival factor (IFN-γ) activity compared with NAC: similar, but lesser effects

## IGF-I: oligodendrocyte survival factor, growth factor
oligodendrocytes; IGF-I 0.1 ng/ml, DMEM alone, 3 days
  Survival (as % of DMEM-BS control): 1 ± 1%

## PDGF
0-2A progenitor cells; PDGF at the indicated concentrations
  induction of DNA synthesis and increases in cell number by PDGF: dose-dependent

B1: interferon-γ: interferon-gamma, survival factor for oligodendrocytes (protein, UniProt P01579 24-161, looked up)
Interferon gamma: QDPYVKEAENLKKYFNAGHSDVADNGTLFLGILKNWKEESDRKIMQSQIVSFYFKLFKNFKDDQSIQKSVETIKEDMNVKFFNSNKKKRDDFEKLTNYSVTDLNVQRKAIHELIQVMAELSPAAKTGKRKRSQMLFRG
oligodendrocytes; 10, 50 or 500 u/ml, DMEM alone, 3 days, MTT staining
  oligodendrocyte survival with interferon-γ: promoted oligodendrocyte survival in a dose-dependent manner
